Results taken from the SangsterLogP compilation.

Work on `CNC(=O)Nc1ccc(S(=O)(=O)NC(=O)c2ccccc2OC)cc1` yielded a logP of 1.95.
For `COP(=S)(OC)SCN1C(=O)c2ccccc2C1=O`, the logP was 2.71.
With `COC(=O)c1ccc(Cl)cc1` the logP was 2.81.
In the case of `CNC(=O)Nc1ccc(C(=O)O)cc1`, the logP is reported as 1.16.
With `c1ccc2[nH]ccc2c1` the logP was 2.15.
`CCNc1nc(Cl)nc(NCC)n1` gave a logP of 2.09.
With `O=Cc1cccc(Oc2ccccc2)c1` the logP was 3.32.
With `CC(C)N(C)S(=O)(=O)NC(=O)c1cc(-n2c(=O)cc(C(F)(F)F)n(C)c2=O)c(F)cc1Cl` the logP was 2.33.
For `CC(C)N(C(=O)CCl)c1ccccc1`, the logP was 2.12.
Molecule `N#Cc1c[nH]cc1-c1cccc2c1OC(F)(F)O2` has a logP of 4.16.
With `CS(=O)(=O)c1ccccc1` the logP was 0.51.
For `CNC(=O)Oc1ccccc1OC(C)C`, the logP was 1.55.
`c1ccc(-c2ccccn2)nc1` gave a logP of 1.72.
`CC(C)N(Cc1ccccc1)C(=O)C(C)(C)C` showed a logP of 2.98.
With `c1ccc(Sc2ccccc2)cc1` the logP was 4.43.
`Cc1cc(C2CC2)nc(Nc2ccccc2)n1` showed a logP of 3.91.
For `CCCC1COC(Cn2cncn2)(c2ccc(Cl)cc2Cl)O1` (stereo not drawn), the logP was 3.57.
In the case of `COCC(=O)N(c1c(C)cccc1C)C(C)C(=O)OC` (stereo not drawn), the logP is reported as 1.6.
With `CC(C)(C)C(O)(CCc1ccc(Cl)cc1)Cn1cncn1` (stereo not drawn) the logP was 3.59.
Work on `CCCN(CCOc1c(Cl)cc(Cl)cc1Cl)C(=O)n1ccnc1` yielded a logP of 4.02.
`CCON=C(CC)C1=C(O)CC(c2c(C)cc(C)cc2C)CC1=O` (stereo not drawn) gave a logP of 4.77.
Work on `O=[N+]([O-])C=C1CCCN1Cc1ccc(Cl)nc1` yielded a logP of 0.7.
`O=C(CCl)Nc1ccccc1` showed a logP of 1.54.
For `CCCCn1nnc2ccccc21`, the logP was 2.52.
Work on `COC(=O)c1ccccc1CS(=O)(=O)NC(=O)Nc1nc(OC)cc(OC)n1` yielded a logP of 2.36.
With `c1ccc2ccccc2c1` the logP was 3.37.
For `CCC(=O)c1ccccc1`, the logP was 2.16.
`CCOc1cc(Oc2ccc(C(F)(F)F)cc2Cl)ccc1[N+](=O)[O-]` showed a logP of 5.19.
With `CSc1nnc(C(C)(C)C)c(=O)n1N` the logP was 1.61.
For `O=[N+]([O-])c1ccccc1`, the logP was 1.79.
Work on `CCOC(=O)c1cccnc1` yielded a logP of 1.38.
For `CC(C)(C)[C@H](O)[C@H](Cc1ccc(Cl)cc1)n1cncn1`, the logP was 3.09.
`CC(=O)Nc1ccccn1` gave a logP of 0.56.
Work on `COC(=O)c1ccccc1S(=O)(=O)NC(=O)Nc1nc(OC(F)F)cc(OC(F)F)n1` yielded a logP of 3.49.
Molecule `COc1nc(C)nc(NC(=O)NS(=O)(=O)c2ccccc2OCCCl)n1` has a logP of 1.72.
Work on `COC(=O)N(C(=O)N1CO[C@@]2(C(=O)OC)Cc3cc(Cl)ccc3C2=N1)c1ccc(OC(F)(F)F)cc1` yielded a logP of 4.75.
For `c1ccc2[nH]cnc2c1`, the logP was 1.29.
Molecule `Cc1cc(C)nc(NC(=O)NS(=O)(=O)c2ccccc2C(=O)OC2COC2)n1` has a logP of 1.07.
For `COC(=O)Cc1ccccc1`, the logP was 1.75.
`CO/C=C(/C(=O)OC)c1ccccc1Oc1cc(Oc2ccccc2C#N)ncn1` gave a logP of 2.53.
With `CC(=O)Nc1ccccc1C(F)(F)F` the logP was 1.14.
Molecule `O=[N+]([O-])c1c(Cl)c(Cl)cc(Cl)c1Cl` has a logP of 4.28.
In the case of `O=C1CC(C(=O)O)CC(=O)C1=C(O)C1CC1` (stereo not drawn), the logP is reported as 1.42.
Work on `N#Cc1cc(Br)c(O)c(Br)c1` yielded a logP of 2.9.
For `Nc1ccc(C(F)(F)F)cc1`, the logP was 2.31.
`Oc1cccc2cccnc12` gave a logP of 1.93.
Work on `CCCC(=O)c1c(C)cc(C)c(C2CC(=O)C(/C(CC)=N/OCC)=C(O)C2)c1C` (stereo not drawn) yielded a logP of 4.74.
Work on `N#Cc1cnc2ccccc2c1` yielded a logP of 1.64.
`CC1=CC(=O)CC(C)(C)[C@@]1(O)/C=C/C(C)=C\C(=O)O` gave a logP of 1.71.
With `CCOC(=O)c1ccc([N+](=O)[O-])cc1` the logP was 2.43.
Molecule `O=C(O)COc1ccc(Cl)cc1Cl` has a logP of 2.66.
`CCN(CC)C(=O)C(C)Oc1cccc2ccccc12` (stereo not drawn) showed a logP of 3.22.
With `COc1cc(OC)nc(NC(=O)NS(=O)(=O)c2ncccc2OCC(F)(F)F)n1` the logP was 1.85.
Work on `CC(C)N1C(=O)N(c2ccccc2)CSC1=NC(C)(C)C` yielded a logP of 4.92.
With `Fc1ccc([C@@]2(Cn3cncn3)O[C@@H]2c2ccccc2Cl)cc1` the logP was 3.3.
In the case of `Cc1cc(C)nc(Nc2ccccc2)n1`, the logP is reported as 2.84.
For `CCCCOC(=O)c1ccccc1C(=O)OCCCC`, the logP was 4.46.
Molecule `CCN1C(=O)C(=O)c2ccc(OC)cc2C1=O` has a logP of 1.4.
For `C=CCN(CC=C)C(=O)C(Cl)Cl`, the logP was 1.77.
In the case of `COC(=O)NCc1cc(/C(C)=N/OCc2cccc(C)n2)ccc1Cl`, the logP is reported as 3.64.
Work on `CCCCc1c(C)nc(NCC)[nH]c1=O` yielded a logP of 2.23.
`CC(C)(C)C(O)C(Cc1ccc(Cl)cc1Cl)n1cncn1` (stereo not drawn) gave a logP of 3.69.
Molecule `COC(=O)C(C)Oc1ccc(Oc2ccc(Cl)cc2Cl)cc1` (stereo not drawn) has a logP of 4.89.
Work on `Cc1ccc(NC(=O)N(C)C)cc1Cl` yielded a logP of 2.43.
Work on `CC(C)N1C(=O)c2ccccc2NS1(=O)=O` yielded a logP of 2.75.
With `Nc1cc(Cl)cc(Cl)c1` the logP was 2.89.
For `CO/N=C(/C(=O)OC)c1ccccc1CO/N=C(\C)c1cccc(C(F)(F)F)c1`, the logP was 4.45.
In the case of `N#Cc1c(Cl)c(Cl)c(Cl)c(C#N)c1Cl`, the logP is reported as 2.93.
`COC(=O)c1ccccc1C(=O)OC` showed a logP of 1.49.
`CCOC(=O)C(C)Oc1ccc(Oc2ccc(C(F)(F)F)cn2)cc1` (stereo not drawn) showed a logP of 3.9.
Work on `OC(Cn1cncn1)(c1ccc(F)cc1)c1ccccc1F` (stereo not drawn) yielded a logP of 2.26.
With `FC(F)C(F)(F)OCC(Cn1cncn1)c1ccc(Cl)cc1Cl` (stereo not drawn) the logP was 3.49.
`CC(C)(C)C(=O)C(Oc1ccc(Cl)cc1)n1cncn1` (stereo not drawn) showed a logP of 3.11.
With `c1ccc(Oc2ccccn2)cc1` the logP was 2.36.
`COC(=O)c1cc(Oc2ccc(Cl)cc2Cl)ccc1[N+](=O)[O-]` showed a logP of 4.53.
In the case of `CCCCCOC(=O)C(C)Oc1ccc(Oc2ccc(C(F)(F)F)cn2)cc1` (stereo not drawn), the logP is reported as 5.6.
For `Cc1[nH]n(C)c(=O)c1C(=O)c1ccc(C(F)(F)F)cc1S(C)(=O)=O`, the logP was 0.63.
`CCSC(=O)N(CC(C)C)CC(C)C` gave a logP of 4.1.
`O=C(NCCc1ncc(C(F)(F)F)cc1Cl)c1ccccc1C(F)(F)F` showed a logP of 3.26.
Molecule `CC1(c2ccc(Oc3ccccc3)cc2)OC(=O)N(Nc2ccccc2)C1=O` (stereo not drawn) has a logP of 4.78.
`CC1(C)CCC(Cc2ccc(Cl)cc2)C1(O)Cn1cncn1` (stereo not drawn) showed a logP of 3.82.
For `CCCCOC(=O)C(C)Oc1ccc(Oc2ccc(C(F)(F)F)cn2)cc1` (stereo not drawn), the logP was 5.01.
`c1ccc(-c2ccc(C(c3ccccc3)n3ccnc3)cc2)cc1` (stereo not drawn) gave a logP of 5.12.
For `CCNc1nc(Cl)nc(NC(C)C)n1`, the logP was 2.54.
Molecule `Nc1ccc(Cl)c(Cl)c1` has a logP of 2.62.
With `CC(C)(C)N(NC(=O)c1ccccc1)C(=O)c1ccccc1` the logP was 2.43.
With `CON(C(=O)c1cn(C)nc1C(F)F)C(C)Cc1c(Cl)cc(Cl)cc1Cl` (stereo not drawn) the logP was 3.77.
With `CC(Oc1ccc(Oc2ccc(Cl)cc2Cl)cc1)C(=O)O` (stereo not drawn) the logP was 4.69.
Molecule `CCCCC(C#N)(Cn1cncn1)c1ccc(Cl)cc1` (stereo not drawn) has a logP of 3.06.
With `CC(=NC#N)N(C)Cc1ccc(Cl)nc1` the logP was 0.82.
Work on `Cc1cc(C(F)(F)F)nn1CC(=O)N1CCC(c2nc(C3=NOC(c4c(F)cccc4F)C3)cs2)CC1` (stereo not drawn) yielded a logP of 3.6.
`CN(C)C(=O)Nc1cc(C(C)(C)C)on1` gave a logP of 1.91.
`COc1c(Cl)ccc(Cl)c1C(=O)O` showed a logP of 2.52.
Work on `CCOC(=O)C1CC(=O)C(=C(O)C2CC2)C(=O)C1` (stereo not drawn) yielded a logP of 2.02.
`CS(=O)(=O)c1ccc(C(=O)C2C(=O)CCCC2=O)c(Cl)c1` gave a logP of 1.2.
With `C#CC(C)(C)NC(=O)c1cc(Cl)cc(Cl)c1` the logP was 3.23.
Work on `CS(=O)(=O)c1ccc(C(=O)C2C(=O)CCCC2=O)c(Cl)c1COCC(F)(F)F` yielded a logP of 2.15.
For `Cc1cc(Cl)ccc1OCC(=O)O`, the logP was 2.79.
Work on `COC(=O)C(C)N(C(=O)c1ccco1)c1c(C)cccc1C` (stereo not drawn) yielded a logP of 2.59.
Molecule `CC1=C(C(=O)Nc2ccccc2)SCCO1` has a logP of 2.08.
For `CC1COC(Cn2cncn2)(c2ccc(Oc3ccc(Cl)cc3)cc2Cl)O1` (stereo not drawn), the logP was 4.24.
Work on `COC(=O)C=Cc1ccccc1` yielded a logP of 2.67.
`CN(C)C(=O)Nc1ccc(Cl)c(Cl)c1` showed a logP of 2.74.
Work on `CCc1cccc(C)c1N(C(=O)CCl)C(C)COC` (stereo not drawn) yielded a logP of 3.01.
With `C[C@@H](Oc1ccc(Oc2ccc(C#N)cc2F)cc1)C(=O)O` the logP was 3.08.
`Cn1cc(C(=O)Nc2cccc3c2[C@@H]2CC[C@H]3C2=C(Cl)Cl)c(C(F)F)n1` showed a logP of 4.34.
With `CNC(=O)Oc1cccc2c1OC(C)(C)C2` the logP was 1.59.
In the case of `CC(C1CC1)C(O)(Cn1cncn1)c1ccc(Cl)cc1` (stereo not drawn), the logP is reported as 2.99.
With `CS(=O)(=O)c1ccc(C(=O)C2C(=O)CCCC2=O)c([N+](=O)[O-])c1` the logP was 0.9.
`c1ccc(-c2ccncn2)cc1` gave a logP of 1.9.
`CC(=O)Nc1cccnc1` showed a logP of 0.38.
`Cc1cccc2sc3nncn3c12` gave a logP of 1.42.
With `N#CN=C1SCCN1Cc1ccc(Cl)nc1` the logP was 1.26.
Work on `C[Si](Cn1cncn1)(c1ccc(F)cc1)c1ccc(F)cc1` yielded a logP of 3.76.
In the case of `CCCCC(O)(Cn1cncn1)c1ccc(Cl)cc1Cl` (stereo not drawn), the logP is reported as 3.8.
`Fc1ccc(Oc2ccnc3cc(Cl)cc(Cl)c23)cc1` gave a logP of 5.27.
With `CCCC(=O)c1ccccc1` the logP was 2.68.
`O=[N+]([O-])c1ccc(Oc2ccccc2)cc1` showed a logP of 3.66.
In the case of `c1ccc(-c2ccccc2)cc1`, the logP is reported as 3.96.
For `CCOCn1c(-c2ccc(Cl)cc2)c(C#N)c(Br)c1C(F)(F)F`, the logP was 5.24.
Work on `Cc1ccc(CO)cc1` yielded a logP of 1.62.
In the case of `CC(C)CC(C)c1sccc1NC(=O)c1cn(C)nc1C(F)(F)F` (stereo not drawn), the logP is reported as 3.96.
With `CC(C)Oc1cccc(NC(=O)c2ccccc2C(F)(F)F)c1` the logP was 3.59.
For `Cc1nc(N(C)C)nc(OC(=O)N(C)C)c1C`, the logP was 1.75.
With `C#CCOc1ccc(CCNC(=O)C(OCC#C)c2ccc(Cl)cc2)cc1OC` (stereo not drawn) the logP was 3.16.
In the case of `c1ccc2c(c1)Nc1ccccc1S2`, the logP is reported as 4.08.
`Nc1c(Cl)cccc1Cl` gave a logP of 2.75.
Work on `C[C@@H](Oc1ccc(Oc2ccc(C(F)(F)F)cn2)cc1)C(=O)O` yielded a logP of 3.21.
Molecule `COc1nc(C)nc(NC(=O)NS(=O)(=O)c2ccccc2CCC(F)(F)F)n1` has a logP of 2.87.
For `O=c1c2cc(F)ccc2nc(-n2cncn2)n1-c1ccc(Cl)cc1Cl`, the logP was 3.21.
`CO/C=C(/C(=O)OC)c1ccccc1COc1cc(C(F)(F)F)nc(OC(C)C)n1` gave a logP of 4.18.
For `CCCOC(=O)C(C)Oc1ccc(Oc2ccc(C(F)(F)F)cn2)cc1` (stereo not drawn), the logP was 4.44.
`CO/N=C(/C1=NOCCO1)c1ccccc1Oc1ncnc(Oc2ccccc2Cl)c1F` gave a logP of 2.95.
